Among the test systems are ACHN renal; CAKI-1 renal; HCT-116 colon; HOP-92 NSCLC; IGROV1 ovarian; MALME-3M melanoma; MDA-MB-231 breast; NCI-H460 lung; NCI-H522 lung; OVCAR-3 ovarian; SF-268 CNS; SF-539 CNS; SK-MEL-28 melanoma; SW-620 colon; T-47D breast; TK-10 renal; U251 CNS; HS 578T breast; NCI-H226 lung.
What all share (assay): NCI tumour cell line growth inhibition, 48 h

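Growth conditions: 96-well plates. Treatment: test compound, 48 hours, 5 concentrations. Analysis: linear interpolation between bracketing concentrations; unreached endpoints set to highest concentration. TGI denotes the concentration required for complete inhibition of growth.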 Some results are limits rather than exact numbers.

For the compound `Cc1ccc(/C=c2\cc3oc(=O)c4cccc(c4-3)c2=O)cc1`, the TGI in the assay with ACHN renal, in the assay with CAKI-1 renal, in the assay with HCT-116 colon, in the assay on HOP-92 NSCLC, with IGROV1 ovarian and with MALME-3M melanoma was above 100 µM throughout. Moreover, the TGI with MDA-MB-231 breast, with NCI-H460 lung, in the assay with NCI-H522 lung, with OVCAR-3 ovarian, in the assay with SF-268 CNS and in the assay with SF-539 CNS was above 100 µM throughout. Besides, the TGI in the assay with SK-MEL-28 melanoma, in the assay on SW-620 colon, in the assay on T-47D breast, in the assay with TK-10 renal and in the assay on U251 CNS was above 100 µM each time.
As to `NC(Cc1ccccc1)C(=O)OCN1C(=O)C2C3C=CC(C2C1=O)C1C(=O)N(COC(=O)C(N)Cc2ccccc2)C(=O)C31` (stereo not drawn), the TGI with ACHN renal, with CAKI-1 renal, in the assay with HCT-116 colon, in the assay on HS 578T breast, with IGROV1 ovarian and in the assay on MALME-3M melanoma was above 100 µM each time. The TGI with MDA-MB-231 breast, with NCI-H226 lung, in the assay with NCI-H460 lung, in the assay with NCI-H522 lung, in the assay on OVCAR-3 ovarian and in the assay on SF-268 CNS was above 100 µM each time. The TGI is above 100 µM with SF-539 CNS; above 100 µM in the assay on SK-MEL-28 melanoma; 77.3 µM in the assay with SW-620 colon; above 100 µM with T-47D breast; above 100 µM in the assay on TK-10 renal; above 100 µM in the assay on U251 CNS.
For the compound `C[N+](C)(CCNc1ccc(NCC[N+](C)(C)Cc2ccc([N+](=O)[O-])cc2)c2c1C(=O)c1c(O)ccc(O)c1C2=O)Cc1ccc([N+](=O)[O-])cc1`, the TGI with ACHN renal, in the assay with CAKI-1 renal, in the assay with HCT-116 colon, in the assay with HS 578T breast, in the assay on IGROV1 ovarian and in the assay on MALME-3M melanoma was above 50 µM in each case. The TGI with MDA-MB-231 breast, in the assay on NCI-H460 lung, in the assay with NCI-H522 lung, in the assay on OVCAR-3 ovarian, in the assay on SF-268 CNS and with SF-539 CNS was above 50 µM in each case. Also, the TGI in the assay with SK-MEL-28 melanoma, in the assay with SW-620 colon, with T-47D breast, in the assay with TK-10 renal and in the assay with U251 CNS was above 50 µM each time.
`CSc1cc(Cl)c(C)cc1S(=O)(=O)NC(=O)NNc1ccc(C)cc1`: the TGI in the assay with ACHN renal, in the assay on CAKI-1 renal, in the assay with HCT-116 colon, in the assay on HS 578T breast, with IGROV1 ovarian and in the assay with MALME-3M melanoma was above 100 µM in each case. The TGI in the assay on MDA-MB-231 breast, with NCI-H226 lung, with NCI-H460 lung, with NCI-H522 lung, with OVCAR-3 ovarian and in the assay on SF-268 CNS was above 100 µM each time. For the same compound, the TGI in the assay on SF-539 CNS, in the assay on SK-MEL-28 melanoma, in the assay on SW-620 colon, in the assay with T-47D breast and with U251 CNS was above 100 µM each time.
Consider `Cc1sc(/N=C/C2=C(O)CC(C)(C)CC2=O)nc1-c1ccccc1`, for which the TGI with ACHN renal, with CAKI-1 renal, in the assay with HCT-116 colon, with HOP-92 NSCLC, in the assay with HS 578T breast and with IGROV1 ovarian was above 100 µM throughout. For the same compound, the TGI with MDA-MB-231 breast, with NCI-H226 lung, with NCI-H460 lung, in the assay on NCI-H522 lung, in the assay on OVCAR-3 ovarian and with SF-268 CNS was above 100 µM throughout. In addition, the TGI in the assay with SF-539 CNS, with SK-MEL-28 melanoma, in the assay with SW-620 colon, in the assay on T-47D breast, in the assay on TK-10 renal and with U251 CNS was above 100 µM in each case.
For `Cc1ccc(S(=O)(=O)N/N=C2\C=CC3(CC2)C(=O)N(I)c2ccccc23)cc1` (stereo not drawn), the TGI is above 100 µM in the assay on ACHN renal; above 100 µM in the assay on CAKI-1 renal; above 100 µM in the assay with HCT-116 colon; above 100 µM with HOP-92 NSCLC; 6.82 µM in the assay with MALME-3M melanoma; above 100 µM in the assay on MDA-MB-231 breast. The TGI in the assay with NCI-H226 lung, in the assay on NCI-H460 lung, with OVCAR-3 ovarian, in the assay on SF-268 CNS, in the assay with SF-539 CNS and with SK-MEL-28 melanoma was above 100 µM throughout. Also, the TGI with SW-620 colon, in the assay on T-47D breast, with TK-10 renal and in the assay on U251 CNS was above 100 µM throughout.
Take `O=C(NNC(=O)c1ccco1)c1ccco1`: the TGI with CAKI-1 renal, in the assay on HCT-116 colon, in the assay with HS 578T breast, with IGROV1 ovarian, with MALME-3M melanoma and in the assay with MDA-MB-231 breast was above 100 µM in each case. Besides, the TGI in the assay on NCI-H226 lung, in the assay on NCI-H460 lung, with NCI-H522 lung, in the assay with OVCAR-3 ovarian, with SF-268 CNS and in the assay with SF-539 CNS was above 100 µM throughout. Also, the TGI with SK-MEL-28 melanoma, with SW-620 colon, with T-47D breast, with TK-10 renal and in the assay with U251 CNS was above 100 µM in each case.
For the compound `Cc1ccc(C(=O)N/N=C(\N=Nc2ccc([N+](=O)[O-])cc2)c2ccc(N(CCC#N)CCC#N)cc2C)cc1`, the TGI in the assay with ACHN renal, with CAKI-1 renal, with HCT-116 colon, in the assay on HOP-92 NSCLC, with HS 578T breast and in the assay on IGROV1 ovarian was above 100 µM each time. For the same compound, the TGI in the assay with MALME-3M melanoma, in the assay on MDA-MB-231 breast, with NCI-H226 lung, in the assay on NCI-H460 lung, in the assay on OVCAR-3 ovarian and in the assay with SF-268 CNS was above 100 µM each time. The TGI in the assay with SF-539 CNS is above 100 µM; with SK-MEL-28 melanoma it was above 100 µM; in the assay with SW-620 colon it was above 100 µM; with T-47D breast, 83.4 µM; in the assay with TK-10 renal, above 100 µM; with U251 CNS, above 100 µM.
